{"source": "patent EP1509285B1", "about": "“SYNERGISTIC COMPOSITION OF TRANS-TETRACOS-15-ENOIC ACID AND APOCYNIN AND USE THEREOF” (COUNCIL OF SCIENTIFIC AND INDUSTRIAL RESEARCH, priority 2002, dated 2003)", "key": {"[1]": {"tested_on": "CCl4 induced hepatic injury", "test": "Hepatoprotective activity (in vivo) against CCl4 induced hepatic injury", "conditions": "rats; for Hepatic parameters Glutathione / Hepatic parameters Lipid peroxidation / Serum parameters ALP / Serum parameters Bilirubin / Serum parameters Triglycerides / Serum parameters GOT / Serum parameters GPT: 50 mg kg-1 p.o. at 48h, 24h, 2h before and 6h after CCl4 0.5 ml kg-1 p.o.; for Serum parameters GOT / Serum parameters GPT: unit is µmole pyruvate/min/L; for hepatoprotective activity percent, ALP / hepatoprotective activity percent, Bilirubin / hepatoprotective activity percent, GOT / hepatoprotective activity percent, GPT / hepatoprotective activity percent, Glutathione / hepatoprotective activity percent, Lipid peroxidation / hepatoprotective activity percent, Triglycerides: CCl4, 50 mg kg-1 p.o., H = [1-(TC-V/VC-V)] × 100", "experimental": "i. Animals: The pharmacological studies are conducted on Wistar albino rats (150-180g) and Swiss albino mice (25-30g) of either sex, colony - bred in the Institute's animal house. After procurement, all the animals are divided into different groups and are left for one week for acclimatization to experimentation room and are maintained on standard conditions (23±2°C, 60-70 % relative humidity and 12 h photo period). The animals are fed with standard rodents pellet diet and water ad libitum. There are six animals in each group except for general behaviour and acute toxicity studies where ten animals are used in each group.\nCarbon tetrachloride (CCl4): CCl4 is one of the most powerful hepatotoxins (in term of severity of injury). It causes toxic necrosis, which leads to biochemical changes having clinical features similar to those of acute viral hepatitis (Vogel, 1977, Bramanti et. al., 1978, Kumar et. al., 1992). Liver injury is produced by administration of CCl4 mixed with liquid paraffin. Animals are given single dose of CCl4 (50 µl.kg^-1, p.o.) in acute single treatment and (0.5 ml.kg^-1, p.o.) in case of multitreatment with drug. It is administered orally (p.o) by gastric intubation. The control animals received the equal volume of liquid paraffin. (Table 3, 4).\nFreshly prepared suspension (1%, w/v) in 0.2% gum acacia in normal saline is used for all the experiments except for toxicity studies where (10 %, w/v) suspension is used. Silymarin suspension (1%, w/v) in 0.2 % gum acacia is used as a reference standard (positive control).\nTreatment of test material before and after hepatotoxin: The doses of TCA and APO individually and in mixture, silymarin (50 mg/kg, p.o. each) and vehicle (normal saline) are fed to different groups of rats at 48 hours, 24 hours and 2 hours before and 6 hours after hepatotoxin (CCl4 , 0.5 ml.kg^-1, p.o.) intoxication. Blood is collected from orbital sinus in all the animals 18 hours after last treatment and serum separated for different estimations. All the animals are then killed by decapitation, their livers are quickly excised, cleaned of adhering tissue, weighed and homogenised in phosphate buffer saline for the analysis of hepatic parameters (Agarwal and Mehendale, 1983, Klingensmith and Mehendale, 1982, Zimmerman, 1973, Edmondson and Peter, 1985, Mitchell, et al, 1973). (Table 3-4).\n• GPT and GOT: Pyruvate formed by transamination reaction is determined spectrophotometrically after reaction with 2,4-dinitrophenylhydrazine (Reitman and Frankel, 1957). • ALP : p-nitrophenol formed in alkaline medium is measured spectrophotometrically using p-nitrophenyl phosphate as substrate (Walter and Schutt, 1974). • Bilirubin : Total bilirubin is measured by diazotization reaction with NaNO2 (Malloy and Evelyn, 1937) • Triglycerides : Triglycerides from serum are extracted with isopropanol and sopanified with KOH. The liberated glycerol is converted to formaldehyde by periodate and determined after reaction with acetyl acetone. Triolein is used as standard (Neri and Firings, 1973). • Glutathione: It is determined after deproteination by reaction with DTNB (Ellman 1959 as modified by David 1987). • Lipid peroxidation: Thiobarbituric acid reacting substances are determined spectrophotometrically at 535 nm. Buege. and Aust. (1978).\nHepatoprotective activity (H) is calculated by the following equation: H = [1-(TC-V/VC-V)] × 100 [formula]\nWhere TC, VC, and V are drug + toxin, vehicle + toxin and vehicle treated groups of animals respectively."}, "[2]": {"tested_on": "galactosamine, paracetamol and CCl4 as hepatotoxins", "test": "Earlier RRL Jammu study: hepatoprotective effect against galactosamine, paracetamol and CCl4 as hepatotoxins, silymarin as reference", "format": "in vivo", "conditions": "synthesized constituent; silymarin as reference material"}, "[3]": {"conditions": "Table 4 (own control groups), mean ± S. E."}}, "data": [{"compound": "COc1cc(C(C)=O)ccc1O", "note": "[APO, Apocynin]", "values": [{"measurement": "Hepatic parameters Glutathione", "setting": "[1]; [3]", "result": "4.44±0.26", "unit": "µ mole GSH/g liver"}, {"measurement": "Hepatic parameters Lipid peroxidation", "setting": "[1]; [3]", "result": "48.12±2.28", "unit": "n moles MDA/g liver"}, {"measurement": "Serum parameters ALP", "setting": "[1]; [3]", "result": "26.66±2.06 µ mole ofp-nitrophenol formed/min/ L"}, {"measurement": "Serum parameters Bilirubin", "setting": "[1]; [3]", "result": "0.37±0.01", "unit": "mg %"}, {"measurement": "Serum parameters Triglycerides", "setting": "[1]; [3]", "result": "28.00±2.39", "unit": "mg %"}, {"measurement": "Serum parameters GOT", "setting": "[1]; [3]", "result": "489.39±66.82", "unit": "Units"}, {"measurement": "Serum parameters GPT", "setting": "[1]; [3]", "result": "838.58±69.65", "unit": "Units"}, {"measurement": "hepatoprotective activity percent, ALP", "setting": "[1]; Table 4", "result": "(86.05) percent"}, {"measurement": "hepatoprotective activity percent, Bilirubin", "setting": "[1]; Table 4", "result": "(48.94) percent"}, {"measurement": "hepatoprotective activity percent, GOT", "setting": "[1]; Table 4", "result": "(39.31) percent"}, {"measurement": "hepatoprotective activity percent, GPT", "setting": "[1]; Table 4", "result": "(47.86) percent"}, {"measurement": "hepatoprotective activity percent, Glutathione", "setting": "[1]; Table 4", "result": "(40.73) percent"}, {"measurement": "hepatoprotective activity percent, Lipid peroxidation", "setting": "[1]; Table 4", "result": "(42.77) percent"}, {"measurement": "hepatoprotective activity percent, Triglycerides", "setting": "[1]; Table 4", "result": "(36.68) percent"}]}, {"compound": "CCCCCCCC/C=C/CCCCCCCCCCCCCC(=O)O", "note": "[TCA, trans-tetracos-15-enoic acid]", "values": [{"measurement": "Hepatic parameters Glutathione", "setting": "[1]; Table 3, mean ± S.E.", "result": "5.35±0.51", "unit": "µ mole GSH/g liver"}, {"measurement": "Hepatic parameters Lipid peroxidation", "setting": "[1]; Table 3, mean ± S.E.", "result": "46.88±2.58", "unit": "n moles MDA/g liver"}, {"measurement": "Serum parameters ALP", "setting": "[1]; Table 3, mean ± S.E.", "result": "28.72±3.90 µ mole of p-nitrophenol formed/min/ L"}, {"measurement": "Serum parameters Bilirubin", "setting": "[1]; Table 3, mean ± S.E.", "result": "0.35±0.02", "unit": "mg %"}, {"measurement": "Serum parameters Triglycerides", "setting": "[1]; Table 3, mean ± S.E.", "result": "23.53±1.77", "unit": "mg %"}, {"measurement": "Serum parameters GOT", "setting": "[1]; Table 3, mean ± S.E.", "result": "409.73±46.57", "unit": "Units"}, {"measurement": "Serum parameters GPT", "setting": "[1]; Table 3, mean ± S.E.", "result": "324.84±42.09", "unit": "Units"}, {"measurement": "hepatoprotective activity percent, ALP", "setting": "[1]; Table 3", "result": "(81.78) percent"}, {"measurement": "hepatoprotective activity percent, Bilirubin", "setting": "[1]; Table 3", "result": "(55.55) percent"}, {"measurement": "hepatoprotective activity percent, GOT", "setting": "[1]; Table 3", "result": "(62.16) percent"}, {"measurement": "hepatoprotective activity percent, GPT", "setting": "[1]; Table 3", "result": "(74.63) percent"}, {"measurement": "hepatoprotective activity percent, Glutathione", "setting": "[1]; Table 3", "result": "(52.92) percent"}, {"measurement": "hepatoprotective activity percent, Lipid peroxidation", "setting": "[1]; Table 3", "result": "(64.33) percent"}, {"measurement": "hepatoprotective activity percent, Triglycerides", "setting": "[1]; Table 3", "result": "(66.05) percent"}, {"measurement": "hepatoprotective effect against galactosamine, paracetamol and CCl4 as hepatotoxins", "setting": "[2]", "result": "dose related hepatoprotective effect"}]}]}
